Laboratory results taken from ChEMBL document CHEMBL5375979, “Chemical, Biochemical, Cellular, and Physiological Characterization of Leucettinib-21, a Down Syndrome and Alzheimer's Disease Drug Candidate” (J Med Chem, 2023).
pIC50: −log10 of the molar value. “And” between values parts separate entries of the source, which are not always exact repeats. Identical values can stand only once.

Assays:
[1] = molecular target: Dual specificity protein kinase CLK4 (Homo sapiens, UniProt Q9HAZ1)
[2] = molecular target: Dual specificity tyrosine-phosphorylation-regulated kinase 1A (Homo sapiens, UniProt Q13627)
[3] = molecular target: Dual specificity protein kinase CLK1 (Homo sapiens, UniProt P49759)
Chain of Dual specificity protein kinase CLK1 (P49759 whole entry): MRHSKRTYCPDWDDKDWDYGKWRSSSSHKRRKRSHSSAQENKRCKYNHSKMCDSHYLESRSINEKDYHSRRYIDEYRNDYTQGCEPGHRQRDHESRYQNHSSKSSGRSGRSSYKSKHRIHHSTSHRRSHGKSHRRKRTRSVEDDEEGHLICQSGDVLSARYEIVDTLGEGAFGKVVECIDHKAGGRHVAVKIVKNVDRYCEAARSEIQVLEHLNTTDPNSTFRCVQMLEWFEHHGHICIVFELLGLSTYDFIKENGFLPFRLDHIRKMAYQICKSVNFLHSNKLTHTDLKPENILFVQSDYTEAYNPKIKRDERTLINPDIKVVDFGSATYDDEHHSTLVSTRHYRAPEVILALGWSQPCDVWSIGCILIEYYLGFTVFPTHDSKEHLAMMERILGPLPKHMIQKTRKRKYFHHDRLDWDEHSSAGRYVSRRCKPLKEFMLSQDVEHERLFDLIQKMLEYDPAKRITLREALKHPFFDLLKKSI

[4] = molecular target: Dual specificity tyrosine-phosphorylation-regulated kinase 1B (Homo sapiens, UniProt Q9Y463)
Chain of Dual specificity tyrosine-phosphorylation-regulated kinase 1B (Q9Y463 whole entry): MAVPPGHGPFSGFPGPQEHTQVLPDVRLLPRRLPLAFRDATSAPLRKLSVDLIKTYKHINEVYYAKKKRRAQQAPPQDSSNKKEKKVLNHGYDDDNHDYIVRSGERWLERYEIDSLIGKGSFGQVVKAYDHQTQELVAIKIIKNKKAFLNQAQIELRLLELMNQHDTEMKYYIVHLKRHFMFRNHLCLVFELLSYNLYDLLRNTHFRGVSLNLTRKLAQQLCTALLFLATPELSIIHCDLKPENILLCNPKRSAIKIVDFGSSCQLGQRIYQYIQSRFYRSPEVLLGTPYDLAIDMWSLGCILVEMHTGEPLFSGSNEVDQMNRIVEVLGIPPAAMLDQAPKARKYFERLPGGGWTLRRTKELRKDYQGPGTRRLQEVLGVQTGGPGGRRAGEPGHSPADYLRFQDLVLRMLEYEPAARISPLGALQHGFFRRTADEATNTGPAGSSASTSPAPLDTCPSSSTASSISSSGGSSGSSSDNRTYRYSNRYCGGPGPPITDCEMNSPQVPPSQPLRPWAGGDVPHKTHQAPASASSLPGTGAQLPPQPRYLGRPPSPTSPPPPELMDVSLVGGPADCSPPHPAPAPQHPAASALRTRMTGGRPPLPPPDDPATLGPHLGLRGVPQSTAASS

[5] = molecular target: Cyclin-dependent kinase 5 (Homo sapiens, UniProt Q00535)
Chain of Cyclin-dependent kinase 5 (Q00535 whole entry): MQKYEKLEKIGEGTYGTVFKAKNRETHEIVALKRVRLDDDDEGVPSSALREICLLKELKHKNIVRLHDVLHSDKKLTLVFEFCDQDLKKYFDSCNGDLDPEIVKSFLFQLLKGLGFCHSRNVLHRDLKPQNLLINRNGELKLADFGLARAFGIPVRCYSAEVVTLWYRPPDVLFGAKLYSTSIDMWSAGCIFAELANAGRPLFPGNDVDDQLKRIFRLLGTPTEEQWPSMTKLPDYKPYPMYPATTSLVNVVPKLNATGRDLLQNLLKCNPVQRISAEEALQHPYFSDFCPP

Casein kinase I = format: protein assay, Homo sapiens
[6] = molecular target: Dual specificity protein kinase CLK2 (Homo sapiens, UniProt P49760)
Chain of Dual specificity protein kinase CLK2 (P49760 whole entry): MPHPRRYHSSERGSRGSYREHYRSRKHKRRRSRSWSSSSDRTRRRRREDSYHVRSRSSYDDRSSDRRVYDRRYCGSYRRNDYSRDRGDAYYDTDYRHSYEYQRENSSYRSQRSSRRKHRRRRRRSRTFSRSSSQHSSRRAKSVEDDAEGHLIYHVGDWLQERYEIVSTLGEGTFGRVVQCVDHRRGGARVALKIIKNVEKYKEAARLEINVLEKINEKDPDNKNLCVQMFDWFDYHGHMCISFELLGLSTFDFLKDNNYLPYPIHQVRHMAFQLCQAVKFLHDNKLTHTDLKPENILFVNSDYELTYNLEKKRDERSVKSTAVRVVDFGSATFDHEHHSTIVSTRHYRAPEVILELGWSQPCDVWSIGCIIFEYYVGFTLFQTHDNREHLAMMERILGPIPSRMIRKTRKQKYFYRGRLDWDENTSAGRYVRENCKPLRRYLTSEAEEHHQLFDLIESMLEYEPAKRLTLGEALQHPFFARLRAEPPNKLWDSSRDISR

[7] = molecular target: Dual specificity protein kinase CLK3 (Homo sapiens, UniProt P49761)
Chain of Dual specificity protein kinase CLK3 (P49761 whole entry): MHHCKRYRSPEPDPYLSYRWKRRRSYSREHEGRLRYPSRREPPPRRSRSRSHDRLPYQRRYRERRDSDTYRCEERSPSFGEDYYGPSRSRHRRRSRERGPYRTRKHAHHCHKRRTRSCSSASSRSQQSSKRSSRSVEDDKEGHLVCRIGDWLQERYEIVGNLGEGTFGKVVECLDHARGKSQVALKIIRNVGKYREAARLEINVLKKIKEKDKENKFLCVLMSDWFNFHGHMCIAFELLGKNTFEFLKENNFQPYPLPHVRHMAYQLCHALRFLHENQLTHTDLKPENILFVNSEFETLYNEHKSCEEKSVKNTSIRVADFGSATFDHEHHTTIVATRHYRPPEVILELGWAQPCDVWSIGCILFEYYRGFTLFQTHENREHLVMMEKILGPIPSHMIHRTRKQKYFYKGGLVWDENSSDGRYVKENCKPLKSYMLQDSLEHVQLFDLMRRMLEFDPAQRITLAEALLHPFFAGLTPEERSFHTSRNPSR

[8] = molecular target: T1, Dual specificity tyrosine-phosphorylation-regulated kinase 2 (Homo sapiens, UniProt Q92630)
T1 sequence (Q92630 whole entry): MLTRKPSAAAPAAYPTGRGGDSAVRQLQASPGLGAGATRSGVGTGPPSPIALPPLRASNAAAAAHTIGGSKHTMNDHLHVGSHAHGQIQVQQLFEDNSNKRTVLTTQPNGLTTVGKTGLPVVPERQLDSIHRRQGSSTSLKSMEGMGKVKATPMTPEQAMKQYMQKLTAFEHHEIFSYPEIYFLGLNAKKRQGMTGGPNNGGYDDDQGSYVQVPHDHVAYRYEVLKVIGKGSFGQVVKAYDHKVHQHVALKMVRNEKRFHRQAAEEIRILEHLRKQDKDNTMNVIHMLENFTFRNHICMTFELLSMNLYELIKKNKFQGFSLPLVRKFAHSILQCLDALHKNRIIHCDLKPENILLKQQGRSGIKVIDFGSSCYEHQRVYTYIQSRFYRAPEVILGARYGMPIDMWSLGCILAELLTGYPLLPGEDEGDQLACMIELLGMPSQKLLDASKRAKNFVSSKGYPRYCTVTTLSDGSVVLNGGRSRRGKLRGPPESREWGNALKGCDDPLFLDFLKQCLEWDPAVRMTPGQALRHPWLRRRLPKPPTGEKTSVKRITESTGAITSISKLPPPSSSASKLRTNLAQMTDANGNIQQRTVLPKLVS

[9] = molecular target: T2, Dual specificity tyrosine-phosphorylation-regulated kinase 4 (Homo sapiens, UniProt Q9NR20)
T2 sequence (Q9NR20 whole entry): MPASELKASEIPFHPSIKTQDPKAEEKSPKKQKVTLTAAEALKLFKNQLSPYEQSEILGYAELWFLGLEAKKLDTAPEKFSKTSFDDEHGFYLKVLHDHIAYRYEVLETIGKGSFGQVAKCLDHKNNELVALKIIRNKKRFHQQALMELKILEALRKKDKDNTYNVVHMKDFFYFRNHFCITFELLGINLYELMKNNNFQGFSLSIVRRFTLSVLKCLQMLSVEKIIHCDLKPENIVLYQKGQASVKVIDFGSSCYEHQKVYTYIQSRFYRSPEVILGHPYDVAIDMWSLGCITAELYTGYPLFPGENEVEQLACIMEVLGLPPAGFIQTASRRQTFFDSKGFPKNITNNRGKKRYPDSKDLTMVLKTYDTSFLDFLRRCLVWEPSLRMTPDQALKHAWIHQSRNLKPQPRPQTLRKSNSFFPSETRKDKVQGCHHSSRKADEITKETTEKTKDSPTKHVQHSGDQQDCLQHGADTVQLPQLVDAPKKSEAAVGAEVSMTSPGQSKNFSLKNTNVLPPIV

[10] = molecular target: Glycogen synthase kinase-3 (Homo sapiens, UniProt P49840+P49841); format: protein assay
[11] = molecular target: T3, Dual specificity tyrosine-phosphorylation-regulated kinase 3 (Homo sapiens, UniProt O43781)
T3 sequence (O43781 whole entry): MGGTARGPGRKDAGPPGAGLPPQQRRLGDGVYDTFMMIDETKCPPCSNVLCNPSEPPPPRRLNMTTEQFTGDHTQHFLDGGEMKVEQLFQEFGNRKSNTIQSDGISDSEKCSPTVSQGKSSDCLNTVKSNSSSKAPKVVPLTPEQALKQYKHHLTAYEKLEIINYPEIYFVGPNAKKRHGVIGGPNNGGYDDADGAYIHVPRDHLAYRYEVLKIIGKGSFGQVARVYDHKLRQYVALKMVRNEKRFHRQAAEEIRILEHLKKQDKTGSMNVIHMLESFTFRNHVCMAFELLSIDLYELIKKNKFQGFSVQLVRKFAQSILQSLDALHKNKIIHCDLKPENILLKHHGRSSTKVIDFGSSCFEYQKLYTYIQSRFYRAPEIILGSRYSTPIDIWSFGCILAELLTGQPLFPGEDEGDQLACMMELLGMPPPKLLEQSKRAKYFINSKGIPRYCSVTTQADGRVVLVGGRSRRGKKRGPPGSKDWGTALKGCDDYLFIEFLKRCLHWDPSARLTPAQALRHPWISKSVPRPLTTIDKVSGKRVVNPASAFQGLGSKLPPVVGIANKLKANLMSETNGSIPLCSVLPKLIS

Chain of Dual specificity protein kinase CLK4 (Q9HAZ1 whole entry): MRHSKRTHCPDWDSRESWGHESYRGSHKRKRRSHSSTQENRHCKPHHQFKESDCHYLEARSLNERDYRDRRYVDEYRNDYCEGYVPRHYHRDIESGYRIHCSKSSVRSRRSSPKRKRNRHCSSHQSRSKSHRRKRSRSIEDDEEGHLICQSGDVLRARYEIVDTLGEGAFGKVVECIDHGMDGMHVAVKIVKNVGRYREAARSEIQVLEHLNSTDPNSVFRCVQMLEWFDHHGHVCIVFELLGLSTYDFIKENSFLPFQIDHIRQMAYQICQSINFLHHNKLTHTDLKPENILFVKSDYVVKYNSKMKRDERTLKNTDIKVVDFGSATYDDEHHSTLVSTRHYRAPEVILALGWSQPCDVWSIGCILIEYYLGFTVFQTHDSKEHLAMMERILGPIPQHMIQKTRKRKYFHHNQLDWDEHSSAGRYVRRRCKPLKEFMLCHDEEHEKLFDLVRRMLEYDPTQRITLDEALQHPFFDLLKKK

| SMILES | pIC50 [1] | pIC50 [2] | pIC50 [3] | pIC50 [4] | also measured |
| --- | --- | --- | --- | --- | --- |
| COC[C@@H](CC(C)C)NC1=N/C(=C\c2ccc3[nH]ccc3c2)C(=O)N1C | < 5.00 | 5.41 |  |  |  |
| COC[C@@H](CC(C)C)NC1=N/C(=C\c2ccc3c(ccn3C)c2)C(=O)N1C | < 5.00 | < 5.00 | < 5.00 | < 5.00 |  |
| COC[C@@H](CC(C)C)NC1=N/C(=C\c2ccc3nn(C)cc3c2)C(=O)N1C | 6.82 |  | 6.59 |  |  |
| COC[C@@H](CC(C)C)NC1=N/C(=C\c2ccc3nc(C)sc3c2)C(=O)N1C | 6.17 | 6.29 | 6.30 |  |  |
| COC[C@@H](CC(C)C)NC1=N/C(=C\c2ccc3nc(C)sc3c2)C(=O)N1 | 7.28 |  |  |  |  |
| COC[C@@H](CC(C)C)NC1=N/C(=C\c2ccc3c(c2)ncn3C)C(=O)N1 | < 5.00 | < 5.00 | < 5.00 | < 5.00 |  |
| COC[C@@H](CC(C)C)NC1=N/C(=C\c2ccc3ncsc3c2)C(=O)N1C1CCCCC1 | 5.31 |  | < 5.00 | < 5.00 | pIC50 [5]: < 5.00; IC50 (Casein kinase I): > 10000 nM; pIC50 [6]: < 5.00; pIC50 [7]: < 5.00; pIC50 [8]: 5.40; pIC50 [9]: < 5.00; IC50 [10]: > 10000 nM |
| COC[C@@H](CC(C)C)NC1=N/C(=C\c2ccc3ncsc3c2)C(=O)N1C | 7.94 and 7.91 |  |  | 8.02 and 7.78 | pIC50 [5]: < 5.00; IC50 (Casein kinase I): > 10000 nM; pIC50 [9]: 6.28; IC50 [10]: 4481 nM |
| COC[C@@H](CC(C)C)NC1=N/C(=C\c2ccc3c(cnn3C)c2)C(=O)N1 | 6.72 |  |  | 6.45 |  |
| COC[C@@H](CC(C)C)NC1=N/C(=C\c2cnc3ncsc3c2)C(=O)N1 | < 5.00 |  | < 5.00 |  | pIC50 [5]: < 5.00; IC50 (Casein kinase I): > 10000 nM; pIC50 [6]: < 5.00; pIC50 [7]: < 5.00; pIC50 [8]: < 5.00; pIC50 [9]: < 5.00; IC50 [10]: > 10000 nM |
| COC[C@@H](CC(C)C)NC1=N/C(=C\c2ccc3ncn(C)c3c2)C(=O)N1C |  |  | 7.42 |  |  |
| COC[C@@H](CC(C)C)NC1=N/C(=C\c2ccc3c(cnn3C)c2)C(=O)N1C |  | 6.40 | 6.39 |  |  |
| COC[C@@H](CC(C)C)NC1=N/C(=C\c2ccc3[nH]cnc3c2)C(=O)N1C | 8.68 | 6.95 |  |  |  |
| COC[C@@H](CC(C)C)NC1=N/C(=C\c2ccc3ncsc3n2)C(=O)N1 | 7.58 | 7.44 | 7.47 | 7.07 | pIC50 [5]: < 5.00; IC50 (Casein kinase I): > 10000 nM; pIC50 [7]: 6.66; pIC50 [8]: 5.36; pIC50 [11]: 5.86; pIC50 [9]: 5.32; IC50 [10]: 4270 nM |
| COC[C@@H](CC(C)C)NC1=N/C(=C\c2ccc3[nH]ncc3c2)C(=O)N1 | 6.61 |  | 6.51 | 6.94 |  |
| COC[C@@H](CC(C)C)NC1=N/C(=C\c2ccc3ncn(C)c3c2)C(=O)N1 | 7.93 | 7.10 | 7.42 |  |  |
| COC[C@@H](CC(C)C)NC1=N/C(=C\c2ccc3[nH]ncc3c2)C(=O)N1C | 6.78 | 6.71 |  | 6.87 |  |
| COC[C@@H](CC(C)C)NC1=N/C(=C\c2ccc3nnsc3c2)C(=O)N1C | 6.06 | 6.02 | 6.13 | 6.12 |  |
| CCN1C(=O)/C(=C/c2ccc3ncsc3c2)N=C1N[C@@H](COC)CC(C)C | 7.23 |  | 6.70 |  | pIC50 [5]: < 5.00; IC50 (Casein kinase I): > 10000 nM; pIC50 [7]: 5.87; pIC50 [8]: 6.78; pIC50 [9]: 5.59; IC50 [10]: 7867 nM |
| COC[C@@H](CC(C)C)NC1=N/C(=C\c2ccc3scnc3c2)C(=O)N1C | < 5.00 | < 5.00 | < 5.00 | < 5.00 |  |
| COC[C@@H](CC(C)C)NC1=N/C(=C/c2ccc3ncoc3c2)C(=O)N1C | 7.79 |  | 7.73 |  |  |
| COC[C@@H](CC(C)C)NC1=N/C(=C\c2ccc3c(c2)ncn3C)C(=O)N1C | < 5.00 | < 5.00 | < 5.00 | < 5.00 |  |
| COC[C@@H](CC(C)C)NC1=N/C(=C\c2ccc3c(c2)CCO3)C(=O)N1C | 6.24 | 6.31 |  | 6.77 |  |
| COC[C@@H](CC(C)C)NC1=N/C(=C\c2ccc3nnsc3c2)C(=O)N1 | 6.57 |  |  |  |  |
| CN1C(=O)/C(=C/c2ccc3c(c2)OCO3)N=C1N [LEUCETTAMINE B] |  |  |  |  | IC50 (Casein kinase I): > 10000 nM; IC50 [10]: > 10000 nM |
| COC[C@@H](CC(C)C)NC1=N/C(=C\c2ccc3ncsc3c2)C(=O)N1C1CCC1 | 5.92 | 5.25 | 5.85 |  | pIC50 [5]: < 5.00; IC50 (Casein kinase I): > 10000 nM; pIC50 [7]: 5.33; pIC50 [8]: 6.24; pIC50 [11]: 5.27; IC50 [10]: > 10000 nM |

Second part, led by results:

| pIC50 [1] | pIC50 [2] | pIC50 [3] | pIC50 [4] | SMILES | also measured |
| --- | --- | --- | --- | --- | --- |
| 7.87 | 8.30 | 9.00 | 7.64 | COC[C@@H](CC(C)C)NC1=N/C(=C\c2ccc3c(c2)OCO3)C(=O)N1 |  |
| < 5.00 |  | < 5.00 | 5.09 | COC[C@@H](CC(C)C)NC1=N/C(=C\c2ccc3c(ccn3C)c2)C(=O)N1 |  |
|  |  | 7.85 |  | COC[C@@H](CC(C)C)NC1=N/C(=C\c2ccc3ncoc3c2)C(=O)N1 |  |
|  |  | 7.86 |  | CC(C)C[C@H](CO)NC1=N/C(=C\c2ccc3ncsc3c2)C(=O)N1 | pIC50 [5]: < 5.00; IC50 (Casein kinase I): > 10000 nM; pIC50 [7]: 6.34; pIC50 [8]: 6.20; pIC50 [11]: 6.51; pIC50 [9]: 6.29; IC50 [10]: 2320 nM |
| 8.00 |  |  |  | O=C1NC(Nc2ccccc2)=N/C1=C\c1ccc2c(c1)OCO2 | IC50 (Casein kinase I): > 10000 nM; pIC50 [7]: 5.23; pIC50 [9]: 6.29; IC50 [10]: 1544 nM |
|  |  | 6.72 | 7.11 | COC[C@@H](CC(C)C)NC1=N/C(=C\c2ccc3nn(C)cc3c2)C(=O)N1 |  |
| 7.11 | 7.27 | 6.88 | 7.39 | COC[C@@H](CC(C)C)NC1=N/C(=C\c2ccc3c(c2)OCO3)C(=O)N1C |  |
| < 5.00 | 5.32 |  | < 5.00 | COC[C@@H](CC(C)C)NC1=N/C(=C\c2ccc3[nH]ccc3c2)C(=O)N1 |  |
| 7.39 | 7.12 | 6.98 | 5.97 | COC[C@@H](CC(C)C)NC1=N/C(=C\c2ccc3[nH]cnc3c2)C(=O)N1 |  |
|  |  | 7.41 |  | CC(C)C[C@@H](CO)NC1=N/C(=C\c2ccc3ncsc3c2)C(=O)N1 | pIC50 [5]: < 5.00; IC50 (Casein kinase I): > 10000 nM; pIC50 [7]: 6.32; pIC50 [8]: 5.55; pIC50 [11]: 6.31; pIC50 [9]: 5.29; IC50 [10]: 8165 nM |
| 7.85 | 7.94 | 7.25 | 7.15 | COC[C@@H](CC(C)C)NC1=N/C(=C\c2ccc3c(c2)CCO3)C(=O)N1 |  |
